pKi: −log10 of the molar value.
Columns and labels:
PPARβ/δ = target: T1, PPARβ/δ (Homo sapiens, UniProt Q03181); test: LBD binding (data not shown), three to four-fold higher concentrations than for PPARγ
T1 construct: gene PPARD; LBD
T1 sequence (Q03181 171-441 limits assumed): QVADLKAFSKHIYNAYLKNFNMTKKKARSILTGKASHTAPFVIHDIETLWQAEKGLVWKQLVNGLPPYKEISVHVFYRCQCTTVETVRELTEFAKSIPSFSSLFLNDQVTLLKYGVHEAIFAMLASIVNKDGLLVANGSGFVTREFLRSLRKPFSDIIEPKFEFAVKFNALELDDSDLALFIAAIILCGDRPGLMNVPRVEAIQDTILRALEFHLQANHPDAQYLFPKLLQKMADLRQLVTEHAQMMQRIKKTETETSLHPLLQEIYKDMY

PPARγ = target: T2, PPARγ (Homo sapiens, UniProt P37231); test: LanthaScreen TR-FRET competitive binding assay with purified LBD; supported by luciferase transactivation (partial agonist, EC50 […])
T2 construct: gene PPARG
T2 sequence (P37231 231-505 limits assumed): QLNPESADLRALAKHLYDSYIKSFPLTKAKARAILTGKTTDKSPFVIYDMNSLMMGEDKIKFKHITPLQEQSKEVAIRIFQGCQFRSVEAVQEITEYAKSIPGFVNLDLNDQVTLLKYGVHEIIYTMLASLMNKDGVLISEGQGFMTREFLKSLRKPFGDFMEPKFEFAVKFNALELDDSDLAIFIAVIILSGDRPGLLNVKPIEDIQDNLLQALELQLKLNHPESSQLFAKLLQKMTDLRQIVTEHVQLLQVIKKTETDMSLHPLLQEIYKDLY

PPARα = target: T3, PPARα (Homo sapiens, UniProt Q07869); test: LBD binding (data not shown), three to four-fold higher concentrations than for PPARγ
T3 construct: gene PPARA; LBD
T3 sequence (Q07869 196-468 limits assumed): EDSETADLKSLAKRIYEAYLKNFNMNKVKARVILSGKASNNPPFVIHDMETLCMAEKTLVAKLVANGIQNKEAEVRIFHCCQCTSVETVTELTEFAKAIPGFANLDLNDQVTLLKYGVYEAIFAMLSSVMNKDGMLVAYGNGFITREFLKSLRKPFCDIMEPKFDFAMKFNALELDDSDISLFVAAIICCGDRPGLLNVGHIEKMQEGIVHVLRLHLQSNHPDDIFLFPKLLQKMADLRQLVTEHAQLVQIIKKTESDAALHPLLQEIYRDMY

## C=CCc1ccc(O)c(-c2ccc(O)c(CC=C)c2)c1 [honokiol]
PPARβ/δ
  LBD binding (data not shown), three to four-fold higher concentrations than for: Honokiol also bound to the LBDs of PPARα and PPARβ/δ but only at considerably (three to four-fold) higher concentrations
PPARγ
  pKi: 4.64
PPARα
  LBD binding (data not shown), three to four-fold higher concentrations than for: Honokiol also bound to the LBDs of PPARα and PPARβ/δ but only at considerably (three to four-fold) higher concentrations

From publication PMC3790966, “Honokiol: A non-adipogenic PPARγ agonist from nature^” (Biochimica et Biophysica Acta, 2013)
